| Structure (SMILES) | melting point [°C] |
| --- | --- |
| N#CC(C(=O)Nc1cccc(Br)c1)C(=O)c1nn(-c2ccccc2)c2c1Cc1ccccc1-2 (centres undefined) | 289 to 290 |
| COc1ccccc1-n1nccc1-c1nn(-c2cccc(C(F)(F)F)c2)ccc1=O | 146 to 147 |
| COc1cc2c(cc1N)N(C)C(=O)CN(CC#N)C2 | 128 to 132 |
| CCCc1nc2c(N)nc3cc(OCCCO)ccc3c2s1 | 157 to 160 |
| CCC1C(=O)N(CC)CCc2c1ccc(Nc1ncc(Cl)c(Nc3ccccc3C(=O)NC)n1)c2OC (centres undefined) | 157 to 158 |
| COc1ccnc(C(=O)N[C@H]2COC[C@H](CC3CCCCC3)[C@@H](OCC(C)C)[C@H](C)OC2=O)c1O | 89 to 92 |
| CCN(CC)CCNc1ccc(NCCNCCO)c2c1C(=O)c1c(O)ccc(O)c1C2=O | 165 to 167 |
| CN(CC(F)(F)F)C(=O)COc1nc2ccccc2o1 | 92 |
| O=S(=O)(Nc1ccc(OCc2ccc3ccccc3n2)cc1)c1cccc(C(F)(F)F)c1 | 81 to 83 |
| COc1ccc2c(c1)C1=C(SCC3(CCNCC3)O1)C(=O)C2=O | 224 to 226 |
| Nc1ccc(Cc2n[nH]c(=O)o2)cc1 | 267 to 268 |
| COC(=O)c1ccc(N2C(=O)CCC2CN=[N+]=[N-])c([N+](=O)[O-])c1 (centres undefined) | 68 to 70 |
| COc1cc(NCCO)c([N+](=O)[O-])c(NCCO)c1 | 150 |
| COc1cc(C#N)ccc1-c1cc(-c2cc(C#N)ccc2OC)on1 | 271 to 273 |
| C=C(C)C(=O)OCCCCc1ccc(OC(F)(F)c2c(F)cc(-c3ccc(CCCCOC(=O)C(=C)C)cc3F)cc2F)cc1 | 128 |
| OCCNCCOCCOCCNCCO | 49 to 55 |
| CCOC(=O)C(Cl)=Cc1ccc([N+](=O)[O-])cc1 | 108 to 110 |
| Cc1ccc(C(=O)NC(CC(C)C)C(=O)O)c(SSc2cc(C)ccc2C(=O)NC(CC(C)C)C(=O)O)c1 (centres undefined) | 216 to 218 |
| CN(C)c1c(Cl)cc(C(O)C#Cc2ccc(C(=O)O)c(O)c2)cc1C(C)(C)C (centres undefined) | 175 |
| COC(=O)CCc1ccc(C(=O)O)cc1[N+](=O)[O-] | 120 to 122 |
| CCOC(=O)N1C(NC(C)C)=NS(=O)(=O)c2c1sc(C)c2C#N | 116 to 119 |
| CN(C)c1ccc(S(=O)CCCCCC(=O)NO)cc1 (centres undefined) | 95 to 97 |
| O=c1[nH]c2ncc(-c3ccc(-c4n[nH]c(C(F)(F)F)n4)cc3)nc2n1CC1CCCCC1 | 303 to 305 |
| CC(C)(C)NCC(O)COc1ccccc1Cc1cccc2[nH]ccc12 (centres undefined) | 78 |
| CC(C)(C)OC(=O)NCc1nc(C(=O)NNC(=O)OCc2ccccc2)cc(OCc2ccccc2)c1OCc1ccccc1 | 128 to 129 |

| Structure (SMILES) | melting point [°C] |
| --- | --- |
| CCCCC(=N)NC(=O)Nc1ccccc1O | 173 to 175 |
| O=C1OC(CCCN2CCN(c3ccccn3)CC2)CN1c1ccccc1 (centres undefined) | 123 to 125 |
| COC(=O)c1ccc([N+](=O)[O-])cc1C | 73.6 |
| CC(C(=O)OCN1C(=O)CCC(N2C(=O)c3ccccc3C2=O)C1=O)N(C)C(=O)OC(C)(C)C (centres undefined) | 123 to 125 |
| Cn1c(COc2ccc(CC3SC(=O)NC3=O)cc2)nc2ccc(Oc3ccccn3)cc21 (centres undefined) | 200 to 210 |
| N#Cc1ccc(OCCCOc2cccc(-c3cc4cc(C#N)ccc4o3)c2)cc1 | 157 to 158 |
| COC(=O)NC1=NCC(c2cc(Cl)ccc2Cl)CN1 (centres undefined) | 231 to 234 |
| CC(C)(C)C(=O)c1c[nH]c2ncc(-n3ccnc3)nc12 | 215 to 217 |
| CCOc1cccc(C(C)CC(=O)Nc2sc3c(c2C#N)CCNC3)c1 (racemic) | 178 to 180 |
| NCCOCn1cnc2c(N)ncnc21 | 170 to 171 |
| O=C1c2cccc3c([N+](=O)[O-])c(O)cc(c23)C(=O)N1O | 267 to 270 |
| O=C(c1ccc([N+](=O)[O-])cc1)N1CCCCc2ccccc21 | 148 to 150 |
| Clc1ccccc1C=C(Cn1cncn1)C1(Cl)CC1 | 82 to 85 |
| C=Cc1ccncc1C#N | 56 to 57 |
| CC(C)(O)C#Cc1ncn2c1[C@@H]1CCCN1C(=O)c1c(Cl)cccc1-2 | 234 to 235 |
| CC1CC2C3CCC4=CC(=O)C=CC4(C)C3=CCC2(C)C1C(=O)CN1CCN(c2cc(N3CCC4(CC3)OCCO4)nc(N3CCC4(CC3)OCCO4)n2)CC1 (centres undefined) | 156 to 174 |
| CC(C)CSc1cc(C(=O)O)cc(N)c1Oc1ccccc1 | 148 to 150 |
| CN1c2cccc3cccc(c23)N(C)C1(C)C | 53 to 57 |
| O=C1c2ccccc2C2(O)Oc3c(ccc(Cl)c3Cl)C12O (centres undefined) | 142 to 150 |
| CS(=O)(=O)c1ccc(-c2c(-c3ccc(O)cc3)[nH]c3ccc(Cl)cc23)cc1 | 271 to 273 |
| COc1ccc(NC(=O)O[C@H]2COC(c3ccccc3)=N[C@@H]2c2ccccc2)cc1 (racemic) | 140 |
| CN(C)CCSc1nnc(SCN2C(=O)c3ccccc3S2(=O)=O)s1 | 90.5 to 91.5 |
| O=C1CCN=C(c2ccccc2Cl)c2ccccc21 | 135 to 137 |
| CC(=O)OC1C(COC(=O)c2ccccc2)OC(n2cc(Cl)c(N)nc2=O)C1F (centres undefined) | 233 |
| CCSc1noc(-c2ccc(NS(C)(=O)=O)c(Oc3ccc(F)cc3F)c2)n1 | 116 to 119 |

| Structure (SMILES) | melting point [°C] |
| --- | --- |
| CN1C(=O)C(NC(=O)C(CC2CC2)C2(C(N)=O)CC=CC2)N=C(c2ccccc2)c2ccccc21 (centres undefined) | 238 to 240 |
| O=C(O)CCCCCCCCCCc1ccc(Cl)cc1 | 93 |
| CCCc1nc2c(N)nc3ccccc3c2n1CCCC(=O)CC(C)C | 136 to 138 |
| COc1c(C)c(C(=O)c2ccc3[nH]c(=O)n(O)c(=O)c3c2)n2ccccc12 | 300 |
| CC(C)(C)OC(=O)N1CCc2c(/C=C/[N+](=O)[O-])c3ccccc3n2CC1 | 227 to 230 |
| CC(C)Nc1cccnc1N1CCN(C(=O)c2ccc(C(=O)N3CCOCC3)cc2)CC1 | 139 |
| N#CC(C#N)=C1N(CCCCN2CCCCC2)CCN1CCCN1CCCCC1 | 88 to 90 |
| COc1ccc(C2CCN(c3c(C)c(C)c4c(c3C)C(O)(c3ccccc3)C(C)(C)O4)CC2)cc1OC (centres undefined) | 143 to 145 |
| COC(=O)C(C)(C)NS(=O)(=O)c1ccc2c(Cl)cnc(Cl)c2c1 | 160 to 161 |
| CNC(=O)N(O)C(C)c1ccc(-n2c(C)ccc2C)cc1 (centres undefined) | 131 to 133 |
| CCn1nc(C(C)(C)C)cc1C(=O)Nc1ccc(F)c(C(=O)N(C)C)c1 | 93 to 95 |
| OCc1ccc2c(Cl)ccnc2c1 | 138 to 139 |
| Sc1ncc(-c2ccc(Cl)cc2)[nH]1 | 308 |
| CC(=O)NNC(=O)c1ccccc1 | 172 to 174 |
| CC(C)(C)CC(=O)c1c(-c2ccc3cc(O)ccc3c2)oc2ccccc12 | 205 to 207 |
| CC1(CN2CCC(OCc3ccc(Cl)cc3)CC2)Cn2cc([N+](=O)[O-])nc2O1 (centres undefined) | 129 to 130 |
| O=C(Nc1cccc(Cl)c1)O[C@H]1COC(c2ccccc2)=N[C@@H]1c1ccccc1 (racemic) | 160 |
| CN(C)c1ccc(C=C2SC(=S)N(CC(=O)O)C2=O)cc1 | 260 to 264 |
| O=c1ccn(-c2cccc(Cl)c2)nc1-c1ccnn1-c1ccccc1 | 146 to 147 |
| COC(=O)c1snc(-c2ccccc2)c1C(=O)OC | 70 to 71.5 |
| COc1ccc2oc3ccccc3c(=O)c2c1 | 128 to 130 |
| COC1=C(OC)C(=O)C(CCC(=O)N[C@@H](Cc2ccc(O)cc2)C(=O)O)=C(C)C1=O | 170 |
| CC(=O)N1CCCCc2ccc(C(=O)CCN(C)C)cc21 | 68 to 70 |
| CCCc1ccc(C(=O)Nc2ccc3c(c2)nc(C)n3C)cc1 | 214 to 218 |
| Cc1ccc(C(=O)c2cccc(S(=O)(=O)O)n2)cc1 | > 300 |

| Structure (SMILES) | melting point [°C] |
| --- | --- |
| CCc1nc2c(C)cc(C)nc2n1-c1ccc(CCNC(=O)NS(=O)(=O)c2ccncc2)cc1 | 228 to 229 |
| CC(C)NCC(O)COc1ccc2c(=O)cc(-c3ccc(OCc4ccccc4)c(OCc4ccccc4)c3)oc2c1 (centres undefined) | 177 to 179 |
| CC(C)(C)c1cc(SC(=O)NN)cc(C(C)(C)C)c1O | 130 to 131 |
| Cc1cc(-n2cccn2)c2cccc(OCc3c(Cl)ccc(S(=O)(=O)N4CCC[C@H]4C(=O)O)c3Cl)c2n1 | 148 |
| COC(=O)CCCCc1csc(N)n1 | 131 |
| CN1CC(CNN)CC2c3cccc4[nH]cc(c34)CC21 (centres undefined) | 171 to 172 |
| Cc1c(NC(=O)CC(C)(C)C)cc2c(c1C)OC(C)(C)C2(O)c1cccc(CO)c1 (centres undefined) | 169 to 171 |
| CCOC(=O)CC(c1cccnc1)N1CCN(CCCOc2ccc(C#N)cc2)C(=O)C1=O (centres undefined) | 110 to 112 |
| O=C1SCC(O)=C1Cc1ccc2ccccc2c1 | 238 to 239 |
| Cc1cc(O)ccc1-c1noc2cc(O)ccc12 | 229 to 231 |
| O=C1C=C(c2ccccc2)CC(C(=O)O)C1 (centres undefined) | 140 to 160 |
| O=C1C2=C(NC3(C=N2)SCCS3)c2ccccc21 | 284 to 290 |
| N=C(CCCSc1nccc(NC(N)=NCC(F)(F)F)n1)NC(N)=O | 112 to 115 |
| CC(S)C(=O)N1c2ccccc2CCC1C(=O)O (centres undefined) | 141 to 143 |
| Cn1ncnc1COc1nc2c(cc1-c1cccs1)nnn2-c1ccccc1F | 160 to 162 |
| CCOC(=O)C(CC(=O)c1cc(F)ccc1OC)(NC(C)=O)C(=O)OCC | 123 to 124 |
| CC1CC(=O)C(C(=O)c2ccc(C(F)(F)F)cc2[N+](=O)[O-])C(=O)O1 (centres undefined) | 135 to 136 |
| CC1(C(CCO)C(N)=O)OCCc2c1[nH]c1ccccc21 (centres undefined) | 159 to 161 |
| O=C1Nc2ccccc2C12COc1ccc(F)cc12 (centres undefined) | 224 to 226 |
| CN1CC(CCNC(=S)NC(=O)c2ccccc2)CC2c3cccc4[nH]cc(c34)CC21 (centres undefined) | 205 to 207 |
| O=c1cc(O)c2c([nH]1)CCCC2 | > 300 |
| CCN(CC)C(=O)CCCN(C(=O)Nc1cc(OC)cc(C(C)(C)C)c1O)c1ccccc1 | 131 to 133 |
| Cc1nc2ccccn2c(=O)c1CCN1CCC(=C(c2ccc(F)cc2)c2ccc(F)cc2)CC1 | 109 |
| CC=CC=CCOC(=O)C1=C(C)NC(C)=C(C(=O)OC(C)(C)C)C1c1cccc([N+](=O)[O-])c1 (centres undefined) | 152 to 154 |

From a melting point compilation (Tetko et al.; mined from patent text by program, amines drawn as free bases though some values may be those of a salt)
